Experimental data published in patent publication US20050197350A1, “Novel quinoline, tetrahydroquinazoline, and pyrimidine derivatives and methods of treatment related to the use thereof” (TAISHO PHARMACEUTICAL CO., LTD., priority 2003, published 2005).

The molecules below were run on MCH receptors (assay: MCH receptor activity class (method not given)). Details: MCH receptor; class by percent of control at 10^-7 M or IC50.

| SMILES | class |
| --- | --- |
| Cc1ccc(CCNC(=S)N[C@H]2CC[C@@H](Nc3nc4c(c(N(C)C)n3)CCCC4)CC2)cc1 [compound 2052] | 3 (Class 3 The value of percent of control at 10^−7 M was more than 60% or the value of IC50 was more than 200 nM.) |
| CN(C)c1nc(N[C@H]2CC[C@@H](NC(=S)Nc3ccc(Oc4ccccc4)cc3)CC2)nc2c1CCCC2 [compound 2053] | 3 (Class 3 The value of percent of control at 10^−7 M was more than 60% or the value of IC50 was more than 200 nM.) |
| CN(C)c1nc(N[C@H]2CC[C@@H](NC(=S)Nc3ccc4c(c3)CCC4)CC2)nc2c1CCCC2 [compound 2054] | 3 (Class 3 The value of percent of control at 10^−7 M was more than 60% or the value of IC50 was more than 200 nM.) |
| CN(C)c1nc(N[C@H]2CC[C@@H](NC(=S)NC3CCCCCC3)CC2)nc2c1CCCC2 [compound 2055] | 3 (Class 3 The value of percent of control at 10^−7 M was more than 60% or the value of IC50 was more than 200 nM.) |
| C#CCNC(=S)N[C@H]1CC[C@@H](Nc2nc3c(c(N(C)C)n2)CCCC3)CC1 [compound 2056] | 3 (Class 3 The value of percent of control at 10^−7 M was more than 60% or the value of IC50 was more than 200 nM.) |
| CN(C)c1nc(N[C@H]2CC[C@@H](NC(=S)Nc3ccc(S(=O)(=O)N4CCCCC4)cc3)CC2)nc2c1CCCC2 [compound 2057] | 3 (Class 3 The value of percent of control at 10^−7 M was more than 60% or the value of IC50 was more than 200 nM.) |
| CN(C)c1nc(N[C@H]2CC[C@@H](NC(=S)NCCC3=CCCCC3)CC2)nc2c1CCCC2 [compound 2058] | 3 (Class 3 The value of percent of control at 10^−7 M was more than 60% or the value of IC50 was more than 200 nM.) |
| Cc1ccc(C)c(NC(=S)N[C@H]2CC[C@@H](Nc3nc4c(c(N(C)C)n3)CCCC4)CC2)c1 [compound 2059] | 3 (Class 3 The value of percent of control at 10^−7 M was more than 60% or the value of IC50 was more than 200 nM.) |
| CC(C)c1ccc(NC(=S)N[C@H]2CC[C@@H](Nc3nc4c(c(N(C)C)n3)CCCC4)CC2)c(Br)c1 [compound 2060] | 3 (Class 3 The value of percent of control at 10^−7 M was more than 60% or the value of IC50 was more than 200 nM.) |
| CN(C)c1nc(N[C@H]2CC[C@@H](NC(=S)Nc3cc(F)ccc3Br)CC2)nc2c1CCCC2 [compound 2061] | 3 (Class 3 The value of percent of control at 10^−7 M was more than 60% or the value of IC50 was more than 200 nM.) |
| COc1ccccc1CNC(=S)N[C@H]1CC[C@@H](Nc2nc3c(c(N(C)C)n2)CCCC3)CC1 [compound 2062] | 3 (Class 3 The value of percent of control at 10^−7 M was more than 60% or the value of IC50 was more than 200 nM.) |
| Cc1ccc(NC(=S)N[C@H]2CC[C@@H](Nc3nc4c(c(N(C)C)n3)CCCC4)CC2)cc1C [compound 2063] | 3 (Class 3 The value of percent of control at 10^−7 M was more than 60% or the value of IC50 was more than 200 nM.) |
| CN(C)c1nc(N[C@H]2CC[C@@H](NC(=S)NCCCCc3ccccc3)CC2)nc2c1CCCC2 [compound 2064] | 3 (Class 3 The value of percent of control at 10^−7 M was more than 60% or the value of IC50 was more than 200 nM.) |
| CN(C)c1nc(N[C@H]2CC[C@@H](NC(=S)Nc3ccc(C(C)(C)C)cc3)CC2)nc2c1CCCC2 [compound 2065] | 3 (Class 3 The value of percent of control at 10^−7 M was more than 60% or the value of IC50 was more than 200 nM.) |
| CN(C)c1nc(N[C@H]2CC[C@@H](NC(=S)Nc3cc(Cl)ccc3F)CC2)nc2c1CCCC2 [compound 2066] | 3 (Class 3 The value of percent of control at 10^−7 M was more than 60% or the value of IC50 was more than 200 nM.) |
| CN(C)c1nc(N[C@H]2CC[C@@H](NC(=S)NCC3CC3)CC2)nc2c1CCCC2 [compound 2068] | 3 (Class 3 The value of percent of control at 10^−7 M was more than 60% or the value of IC50 was more than 200 nM.) |

| SMILES | class |
| --- | --- |
| CCOC(=O)c1c(NC(=S)N[C@H]2CC[C@@H](Nc3nc4c(c(N(C)C)n3)CCCC4)CC2)sc2c1CCCC2 [compound 2069] | 3 (Class 3 The value of percent of control at 10^−7 M was more than 60% or the value of IC50 was more than 200 nM.) |
| CN(C)c1nc(N[C@H]2CC[C@@H](NC(=S)Nc3ccc(F)cc3Br)CC2)nc2c1CCCC2 [compound 2070] | 3 (Class 3 The value of percent of control at 10^−7 M was more than 60% or the value of IC50 was more than 200 nM.) |
| CN(C)c1nc(N[C@H]2CC[C@@H](NC(=S)Nc3ccc(F)c(Cl)c3)CC2)nc2c1CCCC2 [compound 2071] | 3 (Class 3 The value of percent of control at 10^−7 M was more than 60% or the value of IC50 was more than 200 nM.) |
| CN(C)c1ccc(NC(=S)N[C@H]2CC[C@@H](Nc3nc4c(c(N(C)C)n3)CCCC4)CC2)cc1 [compound 2072] | 3 (Class 3 The value of percent of control at 10^−7 M was more than 60% or the value of IC50 was more than 200 nM.) |
| CCN(CC)CCCNC(=S)N[C@H]1CC[C@@H](Nc2nc3c(c(N(C)C)n2)CCCC3)CC1 [compound 2073] | 3 (Class 3 The value of percent of control at 10^−7 M was more than 60% or the value of IC50 was more than 200 nM.) |
| CN(C)c1nc(N[C@H]2CC[C@@H](NC(=S)NCCN3CCOCC3)CC2)nc2c1CCCC2 [compound 2074] | 3 (Class 3 The value of percent of control at 10^−7 M was more than 60% or the value of IC50 was more than 200 nM.) |
| CN(C)c1nc(N[C@H]2CC[C@@H](NC(=S)Nc3ccc(-c4nc5c6ccccc6c6ccccc6c5o4)cc3)CC2)nc2c1CCCC2 [compound 2075] | 3 (Class 3 The value of percent of control at 10^−7 M was more than 60% or the value of IC50 was more than 200 nM.) |
| CN(C)c1nc(N[C@H]2CC[C@@H](NC(=S)Nc3cccnc3)CC2)nc2c1CCCC2 [compound 2076] | 3 (Class 3 The value of percent of control at 10^−7 M was more than 60% or the value of IC50 was more than 200 nM.) |
| CN(C)c1ccc(/N=N/c2ccc(NC(=S)N[C@H]3CC[C@@H](Nc4nc5c(c(N(C)C)n4)CCCC5)CC3)cc2)cc1 [compound 2077] | 3 (Class 3 The value of percent of control at 10^−7 M was more than 60% or the value of IC50 was more than 200 nM.) |
| CN(C)c1nc(N[C@H]2CC[C@@H](NC(=S)NCCCN3CCOCC3)CC2)nc2c1CCCC2 [compound 2078] | 3 (Class 3 The value of percent of control at 10^−7 M was more than 60% or the value of IC50 was more than 200 nM.) |
| CN(C)c1nc(N[C@H]2CC[C@@H](NC(=S)NCc3ccc(Cl)cc3)CC2)nc2c1CCCC2 [compound 2079] | 3 (Class 3 The value of percent of control at 10^−7 M was more than 60% or the value of IC50 was more than 200 nM.) |
| CN(C)c1nc(N[C@H]2CC[C@@H](NC(=S)Nc3ccc(/N=N/c4ccccc4)cc3)CC2)nc2c1CCCC2 [compound 2080] | 3 (Class 3 The value of percent of control at 10^−7 M was more than 60% or the value of IC50 was more than 200 nM.) |
| CN(C)c1nc(N[C@H]2CC[C@@H](NC(=S)NCCN3CCCCC3)CC2)nc2c1CCCC2 [compound 2081] | 3 (Class 3 The value of percent of control at 10^−7 M was more than 60% or the value of IC50 was more than 200 nM.) |
| CN(C)c1nc(N[C@H]2CC[C@@H](NC(=S)Nc3ccc(-n4cccn4)cc3)CC2)nc2c1CCCC2 [compound 2082] | 3 (Class 3 The value of percent of control at 10^−7 M was more than 60% or the value of IC50 was more than 200 nM.) |
| CN(C)c1nc(N[C@H]2CC[C@@H](NC(=S)Nc3cccc4nsnc34)CC2)nc2c1CCCC2 [compound 2083] | 3 (Class 3 The value of percent of control at 10^−7 M was more than 60% or the value of IC50 was more than 200 nM.) |
